According to US20240317708A1, “INHIBITORS OF TRANSGLUTAMINASES” (ZEDIRA GMBH, priority 2021, published 2024):

Assays:
[1] = molecular target: T1, recombinant human transglutaminase 2 (Homo sapiens, UniProt P21980); experiment: Transglutaminase assay (dansylcadaverine incorporation into dimethylcasein, DCC-assay); assay type: biochemical; details: recombinant human TG2 10 nM, dansylcadaverine/dimethylcasein, 37° C.
T1 construct: purchased Zedira T022
T1 sequence (P21980 1-687): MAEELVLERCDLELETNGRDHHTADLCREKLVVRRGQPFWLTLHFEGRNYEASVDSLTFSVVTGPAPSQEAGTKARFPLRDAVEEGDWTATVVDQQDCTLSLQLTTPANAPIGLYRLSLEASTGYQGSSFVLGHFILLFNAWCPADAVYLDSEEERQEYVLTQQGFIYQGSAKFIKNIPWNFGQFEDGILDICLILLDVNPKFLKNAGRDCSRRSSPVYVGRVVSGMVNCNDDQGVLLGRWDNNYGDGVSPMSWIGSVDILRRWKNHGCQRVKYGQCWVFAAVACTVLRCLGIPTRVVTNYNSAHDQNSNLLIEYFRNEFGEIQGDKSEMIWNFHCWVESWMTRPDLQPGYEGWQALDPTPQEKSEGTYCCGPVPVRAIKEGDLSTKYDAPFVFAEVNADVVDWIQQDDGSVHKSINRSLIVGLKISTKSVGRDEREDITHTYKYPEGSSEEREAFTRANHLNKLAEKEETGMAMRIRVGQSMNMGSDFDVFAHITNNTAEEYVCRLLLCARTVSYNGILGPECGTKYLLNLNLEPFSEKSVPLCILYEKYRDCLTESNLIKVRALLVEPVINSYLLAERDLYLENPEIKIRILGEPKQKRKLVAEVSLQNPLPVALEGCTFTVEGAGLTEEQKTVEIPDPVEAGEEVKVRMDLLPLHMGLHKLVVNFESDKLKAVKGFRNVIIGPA
Method in brief: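 IC50 derived from fluorescence slope between 20 and 30 min (λex 330 nm, λem 500 nm, 37 °C), expressed relative to a 2% DMSO control. Reaction: 10 nM recombinant human TG2, 4 μM dimethylcasein, 16.7 μM dansylcadaverine, 10 mM CaCl2 and glutathione, pH 8.0.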

[2] = Log D shake flask method (octanol / PBS pH 7.4, HPLC); assay type: physicochemical; details: octanol/phosphate-buffered saline (PBS); octanol / PBS pH 7.4, shake flask
Description: In order to classify the inventive compounds according to their lipophilicity, Log D values (distribution coefficient) were determined by means of the well-established shake flask method, measuring the partition of a compound between an octanol and phosphate-buffered saline (PBS, pH 7.4) by HPLC.

[3] = Caco-2 permeability assay (CacoReady kit); assay type: in vitro ADME; details: human
Method in brief: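 Compounds are tested on pre-formed Caco-2 barriers supplied as a ready-to-use kit, following the kit protocol, and the Papp value is derived to estimate intestinal absorption.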

| Compound | IC50 [1] [nM] | logD [2] | Papp [3] [×10⁻⁶ cm/s] |
| --- | --- | --- | --- |
| COC(=O)/C=C/CC[C@H](NC(=O)c1oc2ccccc2c1C)C(=O)Nc1cccn(CC(=O)N(C)C23CC4CC(CC(C4)C2)C3)c1=O [III-47, (S,E)-methyl 7-(1-(2-(1-adamantyl(methyl)amino)-2-oxoethyl)-2-oxo-1,2-dihydropyridin-3-ylamino)-6-(3-methylbenzofuran-2-carboxamido)-7-oxohept-2-enoate] | 250 to 1500 | 3 to 5 | 1 to 10 |
| O=C(/C=C/CC[C@H](NC(=O)c1cnc2ccc(OC(F)(F)F)cc2c1O)C(=O)Nc1cccn(CC(=O)NC23CC(C2)C3)c1=O)NC1CC1 [III-144, (S,E)-N7-(1-(2-(bicyclo[1.1.1]pentan-1-ylamino)-2-oxoethyl)-2-oxo-1,2-dihydropyridin-3-yl)-N1-cyclopropyl-6-(4-hydroxy-6-(trifluoromethoxy)quinoline-3-carboxamido)hept-2-enediamide] | 250 to 1500 | 3 to 5 | < 1 |
| COC(=O)/C=C/CC[C@H](NC(=O)c1snnc1C1CC1)C(=O)Nc1cccn(CC(=O)NC23CC(C2)C3)c1=O [III-172, (S,E)-methyl 7-(1-(2-(bicyclo[1.1.1]pentan-1-ylamino)-2-oxoethyl)-2-oxo-1,2-dihydropyridin-3-ylamino)-6-(4-cyclopropyl-1,2,3-thiadiazole-5-carboxamido)-7-oxohept-2-enoate] | 25 to 250 | < 1 | < 1 |
| COC(=O)/C=C/CC[C@H](NC(=O)c1cc2ccccc2s1)C(=O)Nc1cccn(CC(=O)NC2C3CC4CC(C3)CC2C4)c1=O (stereo partly drawn) [III-5, (S,E)-methyl 6-(benzo[b]thiophene-2-carboxamido)-7-(1-(2-(2-adamantylamino)-2-oxoethyl)-2-oxo-1,2-dihydropyridin-3-ylamino)-7-oxohept-2-enoate] | < 25 | 3 to 5 | 1 to 10 |
| COC(=O)/C=C/CC[C@H](NC(=O)c1cncn1C)C(=O)Nc1cccn(CC(=O)NC2C3CC4CC(C3)CC2C4)c1=O (stereo partly drawn) [III-1, (S,E)-methyl 7-(1-(2-(2-adamantylamino)-2-oxoethyl)-2-oxo-1,2-dihydropyridin-3-ylamino)-6-(1-methyl-1H-imidazole-5-carboxamido)-7-oxohept-2-enoate] | < 25 | 1 to 3 | < 1 |
| COC(=O)/C=C/CC[C@H](NC(=O)c1snnc1C)C(=O)Nc1cccn(CC(=O)NC23CC4(C)CC(C)(CC(C)(C4)C2)C3)c1=O [III-108, (S,E)-methyl 7-(1-(2-(3,5,7-trimethyl-1-adamantylamino)-2-oxoethyl)-2-oxo-1,2-dihydropyridin-3-ylamino)-6-(4-methyl-1,2,3-thiadiazole-5-carboxamido)-7-oxohept-2-enoate] | < 25 | 3 to 5 | < 1 |
| COC(=O)/C=C/CC[C@H](NC(=O)c1nc[nH]n1)C(=O)Nc1cccn(CC(=O)NC2C3CC4CC(C3)CC2C4)c1=O (stereo partly drawn) [III-104, (S,E)-methyl 7-(1-(2-(2-adamantylamino)-2-oxoethyl)-2-oxo-1,2-dihydropyridin-3-ylamino)-7-oxo-6-(1H-1,2,4-triazole-3-carboxamido)hept-2-enoate] | 25 to 250 | 1 to 3 | < 1 |
| CC(C)OC(=O)/C=C/CC[C@H](NC(=O)c1cn[nH]n1)C(=O)Nc1cccn(CC(=O)NC23CCC(C2)C3)c1=O [III-158, (S,E)-isopropyl 7-(1-(2-(bicyclo[2.1.1]hexan-1-ylamino)-2-oxoethyl)-2-oxo-1,2-dihydropyridin-3-ylamino)-7-oxo-6-(2H-1,2,3-triazole-4-carboxamido)hept-2-enoate] | 250 to 1500 | < 1 | < 1 |
| COC(=O)/C=C/CC[C@H](NC(=O)c1ccnn1C)C(=O)Nc1cccn(CC(=O)N[C@@H]2C[C@H]3CC[C@@H]2C3)c1=O [III-111, (S,E)-methyl 7-(1-(2-((1R,2R,4S)-bicyclo[2.2.1]heptan-2-ylamino)-2-oxoethyl)-2-oxo-1,2-dihydropyridin-3-ylamino)-6-(1-methyl-1H-pyrazole-5-carboxamido)-7-oxohept-2-enoate] | < 25 | 1 to 3 | < 1 |
| COC(=O)/C=C/CC[C@H](NC(=O)c1cc(Cl)sc1Cl)C(=O)Nc1cccn(CC(=O)NC2C3CC4CC(C3)CC2C4)c1=O (stereo partly drawn) [III-13, (S,E)-methyl 6-(2,5-dichlorothiophene-3-carboxamido)-7-(1-(2-(2-adamantylamino)-2-oxoethyl)-2-oxo-1,2-dihydropyridin-3-ylamino)-7-oxohept-2-enoate] | < 25 | 3 to 5 | 1 to 10 |

Further lines, results first:

| IC50 [1] [nM] | logD [2] | Papp [3] [×10⁻⁶ cm/s] | Compound |
| --- | --- | --- | --- |
| < 25 | 3 to 5 | < 1 | COC(=O)/C=C/CC[C@H](NC(=O)c1cncc(C(=O)O)c1)C(=O)Nc1cccn(CC(=O)NC2C3CC4CC(C3)CC2C4)c1=O (stereo partly drawn) [III-35, (S,E)-5-(1-(1-(2-(2-adamantylamino)-2-oxoethyl)-2-oxo-1,2-dihydropyridin-3-ylamino)-7-methoxy-1,7-dioxohept-5-en-2-ylcarbamoyl)nicotinic acid] |
| 25 to 250 | < 1 | < 1 | O=C(/C=C/CC[C@H](NC(=O)c1cc2ccccc2nn1)C(=O)Nc1cccn(CC(=O)NC23CC(C2)C3)c1=O)NC1CC1 [III-145, (S,E)-N7-(1-(2-(bicyclo[1.1.1]pentan-1-ylamino)-2-oxoethyl)-2-oxo-1,2-dihydropyridin-3-yl)-6-(cinnoline-3-carboxamido)-N1-cyclopropylhept-2-enediamide] |
| 25 to 250 | 3 to 5 | 1 to 10 | COC(=O)/C=C/CC[C@H](NC(=O)c1oc2ccccc2c1C)C(=O)Nc1cccn(CC(=O)NC(C)C23CC4CC(CC(C4)C2)C3)c1=O (stereo partly drawn) [III-57, (S,E)-methyl 7-(1-(2-(1-(1-adamantyl)ethanamino)-2-oxoethyl)-2-oxo-1,2-dihydropyridin-3-ylamino)-6-(3-methylbenzofuran-2-carboxamido)-7-oxohept-2-enoate] |
| < 25 | 3 to 5 | 1 to 10 | COC(=O)/C=C/CC[C@H](NC(=O)c1oc2ccccc2c1C)C(=O)Nc1cccn(CC(=O)N[C@@H]2C[C@@H]3CC[C@H]2C3)c1=O [III-59, (S,E)-methyl 7-(1-(2-((1 S,2R,4R)-bicyclo[2.2.1]heptan-2-ylamino)-2-oxoethyl)-2-oxo-1,2-dihydropyridin-3-ylamino)-6-(3-methylbenzofuran-2-carboxamido)-7-oxohept-2-enoate] |
| 25 to 250 | 3 to 5 | 1 to 10 | COC(=O)/C=C/CC[C@H](NC(=O)c1oc2ccccc2c1C)C(=O)Nc1cccn(CC(=O)NC23CC4CC(C2)CC(C(F)(F)F)(C4)C3)c1=O [III-49, (S,E)-methyl 7-(1-(2-(3-trifluoromethyladamantan-1-amino)-2-oxoethyl)-2-oxo-1,2-dihydropyridin-3-ylamino)-6-(3-methylbenzofuran-2-carboxamido)-7-oxohept-2-enoate] |
| 25 to 250 | 1 to 3 | < 1 | COC(=O)/C=C/CC[C@H](NC(=O)c1cn[nH]n1)C(=O)Nc1cccn(CC(=O)NC2C3CC4CC(C3)CC2C4)c1=O (stereo partly drawn) [III-101, (S,E)-methyl 7-(1-(2-(2-adamantylamino)-2-oxoethyl)-2-oxo-1,2-dihydropyridin-3-ylamino)-7-oxo-6-(2H-1,2,3-triazole-4-carboxamido)hept-2-enoate] |
